# Reference: ChEMBL document CHEMBL4665688, “Discovery of AB680: A Potent and Selective Inhibitor of CD73” (J Med Chem, 2020)
# What was measured:
# [1] = biological target: T1, Ectonucleoside triphosphate diphosphohydrolase 2 (Homo sapiens, UniProt Q9Y5L3); assay: Inhibition of NTPDase 2 (unknown origin) expressed in CHO cells using ATP as substrate preincubated for 1 hr followed by substrate addition and measured after 50 mins by PiColorLock gold reagent based colorimetric assay; type: cell-based
# T1 sequence (Q9Y5L3 whole entry): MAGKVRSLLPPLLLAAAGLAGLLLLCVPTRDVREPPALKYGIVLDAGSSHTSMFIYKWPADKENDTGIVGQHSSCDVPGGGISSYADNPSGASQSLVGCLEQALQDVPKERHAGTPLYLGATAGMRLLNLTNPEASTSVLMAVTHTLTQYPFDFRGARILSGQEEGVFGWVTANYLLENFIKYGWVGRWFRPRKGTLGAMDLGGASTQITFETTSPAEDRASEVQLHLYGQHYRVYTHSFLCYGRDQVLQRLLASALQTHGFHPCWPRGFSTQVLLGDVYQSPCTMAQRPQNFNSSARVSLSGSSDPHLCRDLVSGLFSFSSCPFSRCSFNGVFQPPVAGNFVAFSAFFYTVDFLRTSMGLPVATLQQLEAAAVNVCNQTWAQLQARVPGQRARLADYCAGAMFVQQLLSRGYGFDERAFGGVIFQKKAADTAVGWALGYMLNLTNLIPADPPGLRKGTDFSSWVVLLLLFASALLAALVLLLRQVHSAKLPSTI
# [2] = Chemical stability of the compound in basic condition; type: physicochemical
# [3] = Half life in Sprague-Dawley rat at 0.5 mg/kg, iv; type: ADME, organism-based; conditions: in vivo
# [4] = Chemical stability of the compound in acidic condition; type: physicochemical
# [5] = Clearance in mouse at 0.5 mg/kg, iv; type: ADME, organism-based; conditions: in vivo
# [6] = Clearance in human at 16 mg, iv administered as single infusion for 30 to 60 mins; type: ADME, organism-based; conditions: in vivo, time 30-60 min
# Cytochrome P450 2C19 [7] = biological target: T2, Cytochrome P450 2C19 (Homo sapiens, UniProt P33261); assay: Time dependent inhibition of CYP2C19 in human liver microsomes using s-mephenytoin as substrate in presence of NADPH by LC-MS/MS analysis; type: ADME
# Cytochrome P450 3A4 = Cytochrome P450 3A4 (Homo sapiens, UniProt P08684); assay: Induction of CYP3A4 (unknown origin) assessed as effect on CYP3A4 mRNA expression; type: ADME
# [8] = Fraction unbound in monkey plasma; type: ADME, cell-free, Macaca mulatta; conditions: rhesus monkey
# Cytochrome P450 2D6 [9] = biological target: T3, Cytochrome P450 2D6 (Homo sapiens, UniProt P10635); assay: Time dependent inhibition of CYP2D6 in human liver microsomes using dextromethorphan as substrate in presence of NADPH by LC-MS/MS analysis; type: ADME
# [10] = Clearance in monkey at 0.5 mg/kg, iv; type: ADME, organism-based, Macaca mulatta; conditions: rhesus monkey, in vivo
# [11] = Volume of distribution at steady state in mouse at 0.5 mg/kg, iv; type: ADME, organism-based; conditions: in vivo, read-out: Vdss
# Cytochrome P450 2C19 [12] = biological target: T2, Cytochrome P450 2C19; assay: Inhibition of CYP2C19 in human liver microsomes using s-mephenytoin as substrate incubated for 5 to 20 mins in presence of NADPH by LC-MS/MS analysis; type: ADME; conditions: time 5-20 min; read-out: INH
# Cytochrome P450 1A2 = biological target: T4, Cytochrome P450 1A2 (Homo sapiens, UniProt P05177); assay: Time dependent inhibition of CYP1A2 in human liver microsomes using phenacetin as substrate in presence of NADPH by LC-MS/MS analysis; type: ADME
# T4 sequence (P05177 whole entry): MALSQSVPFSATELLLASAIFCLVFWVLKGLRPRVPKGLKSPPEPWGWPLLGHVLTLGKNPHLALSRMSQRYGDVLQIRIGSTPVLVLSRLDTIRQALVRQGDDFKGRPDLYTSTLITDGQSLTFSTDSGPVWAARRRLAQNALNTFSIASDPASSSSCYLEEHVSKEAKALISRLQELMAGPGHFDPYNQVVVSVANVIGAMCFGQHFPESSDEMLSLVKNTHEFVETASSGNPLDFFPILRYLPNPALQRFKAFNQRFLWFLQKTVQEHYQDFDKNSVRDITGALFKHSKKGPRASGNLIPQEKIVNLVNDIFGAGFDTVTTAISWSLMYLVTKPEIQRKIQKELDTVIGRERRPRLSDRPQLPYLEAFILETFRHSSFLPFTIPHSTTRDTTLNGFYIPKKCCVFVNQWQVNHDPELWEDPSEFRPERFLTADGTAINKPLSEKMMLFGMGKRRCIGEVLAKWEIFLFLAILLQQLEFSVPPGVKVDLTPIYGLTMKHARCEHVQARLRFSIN
# [13] = Volume of distribution at steady state in human at 16 mg, iv administered as single infusion for 30 to 60 mins; type: ADME, organism-based; conditions: in vivo, time 30-60 min, read-out: Vdss
# [14] = Volume of distribution at steady state in human at 25 mg, iv administered as single infusion for 30 to 60 mins; type: ADME, organism-based; conditions: in vivo, time 30-60 min, read-out: Vdss
# [15] = Clearance in human at 25 mg, iv administered as single infusion for 30 to 60 mins; type: ADME, organism-based; conditions: in vivo, time 30-60 min
# [16] = Half life in monkey at 0.5 mg/kg, iv; type: ADME, organism-based, Macaca mulatta; conditions: rhesus monkey, in vivo
# [17] = Clearance in dog at 0.5 mg/kg, iv; type: ADME, organism-based, Canis lupus familiaris; conditions: in vivo
# [18] = Volume of distribution at steady state in monkey at 0.5 mg/kg, iv; type: ADME, organism-based, Macaca mulatta; conditions: rhesus monkey, in vivo, read-out: Vdss
# Cytochrome P450 2D6 [19] = biological target: T3, Cytochrome P450 2D6; assay: Inhibition of CYP2D6 in human liver microsomes using dextromethorphan as substrate incubated for 5 to 20 mins in presence of NADPH by LC-MS/MS analysis; type: ADME; conditions: time 5-20 min
# [20] = Half life in dog at 0.5 mg/kg, iv; type: ADME, organism-based, Canis lupus familiaris; conditions: in vivo
# [21] = Volume of distribution at steady state in dog at 0.5 mg/kg, iv; type: ADME, organism-based, Canis lupus familiaris; conditions: in vivo, read-out: Vdss
# 5'-nucleotidase [22] = biological target: T5, 5'-nucleotidase (Homo sapiens, UniProt P21589); assay: Inhibition of soluble human CD73
# 5'-nucleotidase [23] = biological target: T5, 5'-nucleotidase; assay: Inhibition of human CD73 expressed in CHO cells using AMP as substrate preincubated for 60 mins followed by substrate addition and measured after 60 mins by PiColorLock gold reagent based colorimetric assay; type: cell-based
# 5'-nucleotidase [24] = biological target: T5, 5'-nucleotidase; assay: Inhibition of CD73 in human CD8-positive T cells using AMP as substrate preincubated for 60 mins followed by substrate addition and measured after 2.5 hrs by PiColorLock gold reagent based colorimetric assay; type: cell-based, CD8-positive T cell
# 5'-nucleotidase [25] = biological target: T5, 5'-nucleotidase; assay: Inhibition of CD73 in human PBMC using AMP as substrate preincubated for 60 mins followed by substrate addition and measured after 2.5 hrs by PiColorLock gold reagent based colorimetric assay; type: tissue-based
# T5 sequence (P21589 whole entry): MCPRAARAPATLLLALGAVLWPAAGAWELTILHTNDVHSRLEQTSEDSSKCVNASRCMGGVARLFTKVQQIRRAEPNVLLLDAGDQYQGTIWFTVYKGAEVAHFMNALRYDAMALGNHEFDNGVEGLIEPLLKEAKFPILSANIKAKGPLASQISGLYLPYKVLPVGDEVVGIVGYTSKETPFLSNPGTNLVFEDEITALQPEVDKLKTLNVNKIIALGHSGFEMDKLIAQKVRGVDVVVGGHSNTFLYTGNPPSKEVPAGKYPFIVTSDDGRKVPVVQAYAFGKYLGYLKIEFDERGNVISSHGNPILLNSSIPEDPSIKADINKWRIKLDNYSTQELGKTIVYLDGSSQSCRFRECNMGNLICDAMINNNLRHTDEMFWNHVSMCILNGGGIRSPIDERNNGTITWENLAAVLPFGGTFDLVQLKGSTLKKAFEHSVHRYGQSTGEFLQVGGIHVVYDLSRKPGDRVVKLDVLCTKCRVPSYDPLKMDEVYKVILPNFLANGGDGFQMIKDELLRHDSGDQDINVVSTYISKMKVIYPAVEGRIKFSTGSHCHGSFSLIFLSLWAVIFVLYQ
# T2 sequence (P33261 whole entry): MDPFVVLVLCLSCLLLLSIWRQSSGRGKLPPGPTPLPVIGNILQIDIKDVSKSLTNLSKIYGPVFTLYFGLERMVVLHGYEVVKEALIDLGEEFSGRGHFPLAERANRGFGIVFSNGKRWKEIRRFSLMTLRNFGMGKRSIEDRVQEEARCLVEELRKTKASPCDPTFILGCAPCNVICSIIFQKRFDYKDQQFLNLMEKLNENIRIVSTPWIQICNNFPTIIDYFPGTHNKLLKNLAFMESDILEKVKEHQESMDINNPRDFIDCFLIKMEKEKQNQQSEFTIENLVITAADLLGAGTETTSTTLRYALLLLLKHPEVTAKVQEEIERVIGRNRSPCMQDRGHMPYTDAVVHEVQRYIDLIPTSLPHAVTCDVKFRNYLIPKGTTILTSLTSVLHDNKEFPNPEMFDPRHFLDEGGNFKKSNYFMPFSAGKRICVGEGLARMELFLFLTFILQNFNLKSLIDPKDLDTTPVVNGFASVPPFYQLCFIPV
# T3 sequence (P10635 whole entry): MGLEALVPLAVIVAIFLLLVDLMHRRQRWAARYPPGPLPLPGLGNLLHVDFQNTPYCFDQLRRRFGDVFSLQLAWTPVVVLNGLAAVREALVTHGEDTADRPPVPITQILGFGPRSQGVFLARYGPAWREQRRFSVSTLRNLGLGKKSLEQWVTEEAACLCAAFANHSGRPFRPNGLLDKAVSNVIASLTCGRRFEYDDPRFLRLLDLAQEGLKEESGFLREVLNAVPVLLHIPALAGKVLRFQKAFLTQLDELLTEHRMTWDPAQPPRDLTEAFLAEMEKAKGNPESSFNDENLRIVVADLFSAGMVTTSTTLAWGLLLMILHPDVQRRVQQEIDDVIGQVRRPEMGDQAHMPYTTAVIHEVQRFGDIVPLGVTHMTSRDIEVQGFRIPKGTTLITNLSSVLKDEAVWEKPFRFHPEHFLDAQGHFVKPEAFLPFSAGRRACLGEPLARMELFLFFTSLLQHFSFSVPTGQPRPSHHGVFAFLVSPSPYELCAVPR
# Cytochrome P450 3A4, sequence (P08684 whole entry): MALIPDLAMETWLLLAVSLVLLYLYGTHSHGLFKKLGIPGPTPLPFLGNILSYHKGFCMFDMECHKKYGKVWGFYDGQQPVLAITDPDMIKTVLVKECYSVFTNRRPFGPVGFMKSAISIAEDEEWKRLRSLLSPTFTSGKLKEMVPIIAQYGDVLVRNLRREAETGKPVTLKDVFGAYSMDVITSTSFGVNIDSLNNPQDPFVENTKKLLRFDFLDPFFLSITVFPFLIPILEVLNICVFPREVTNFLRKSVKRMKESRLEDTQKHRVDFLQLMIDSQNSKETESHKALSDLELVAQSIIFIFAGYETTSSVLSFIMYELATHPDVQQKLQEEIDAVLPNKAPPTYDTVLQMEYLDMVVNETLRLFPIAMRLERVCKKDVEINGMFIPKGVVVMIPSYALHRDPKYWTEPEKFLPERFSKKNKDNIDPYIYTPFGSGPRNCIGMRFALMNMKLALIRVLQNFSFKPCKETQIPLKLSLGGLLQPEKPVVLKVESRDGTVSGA
IC50 [1],Stabilty [2],half-life [3],Stabilty [4],clearance [5],fraction unbound [8],clearance [10],Vd [11],half-life [16],clearance [17],Vd [18],half-life [20],Vd [21],IC50 (5'-nucleotidase [23]),IC50 (5'-nucleotidase [24]),IC50 (5'-nucleotidase [25]),SMILES,also measured
> 10000 nM,Stable,5.3 h,Stable,0.417 mL/min/kg,0.0059,0.0417 mL/min/kg,0.12 L/kg,27 h,0.833 mL/min/kg,0.099 L/kg,22 h,1.3 L/kg,,,,C[C@H](Nc1cc(Cl)nc2c1cnn2[C@@H]1O[C@H](COP(=O)(O)CP(=O)(O)O)[C@@H](O)[C@H]1O)c1ccccc1F,clearance [6]: 1.12 mL/min; TDI (Cytochrome P450 2C19 [7]): Not Active; Activity (Cytochrome P450 3A4): Not Active; TDI (Cytochrome P450 2D6 [9]): Not Active; IC50 (Cytochrome P450 2C19 [12]): > 100000 nM; TDI (Cytochrome P450 1A2): Not Active; Vd [13]: 6.38 L; Vd [14]: 6.98 L; clearance [15]: 1.14 mL/min; INH (Cytochrome P450 2D6 [19]): > 100 µM
> 10000 nM,,1.7 h,,1.27 mL/min/kg,0.002,0.04 mL/min/kg,0.18 L/kg,28 h,1.18 mL/min/kg,0.096 L/kg,13 h,0.84 L/kg,0.045 nM,0.0027 nM,0.0085 nM,C[C@H](Nc1nc(Cl)nc2c1cnn2[C@@H]1O[C@H](COP(=O)(O)CP(=O)(O)O)[C@@H](O)[C@H]1O)c1ccccc1,IC50 (5'-nucleotidase [22]): 0.053 nM
> 10000 nM,Stable,9.6 h,Stable,0.25 mL/min/kg,0.0034,0.0283 mL/min/kg,0.11 L/kg,34 h,0.567 mL/min/kg,0.078 L/kg,15 h,0.63 L/kg,0.115 nM,0.01 nM,0.021 nM,C[C@H](Nc1cc(Cl)nc2c1cnn2[C@@H]1O[C@H](COP(=O)(O)CP(=O)(O)O)[C@@H](O)[C@H]1O)c1ccc(F)cc1,
